Measurements from ChEMBL document CHEMBL2346572, “Discovery of AZD3514, a small-molecule androgen receptor downregulator for treatment of advanced prostate cancer” (Bioorg Med Chem Lett, 2013).
In brackets after ≈: the same amount, converted by molar mass. Activity calls are given as the source filed them. The calls are words filed in the database; no cut-off is given here.

Tests used:
[1] = system: Rattus norvegicus; assay: Antiandrogenic activity in immature castrated Hershberger rat model assessed as inhibition of testosterone propionate-induced seminal vesicle growth at 2 mg/kg, po bid for 7 days; type: functional, organism-based; design: dose 2 mg/kg
[2] = Fraction unbound in Han Wistar rat plasma by equilibrium dialysis method; type: ADME, cell-free
[3] = Intrinsic clearance in human hepatocytes measured per 10^6 cells
[4] = Fraction unbound in human plasma by equilibrium dialysis method; type: ADME, cell-free
[5] = physchem; details: phosphate buffer
[6] = Lipophilicity, log D of the compound at pH 7.4; details: buffer
[7] = molecular target: T1, Androgen receptor (Homo sapiens, UniProt P10275); assay: Inhibition of androgen receptor-mediated cellular downregulation in human LNCAP cells assessed as decrease in nuclear receptor level after 20 to 22 hrs by laser-scanning fluorescence microplate cytometeric analysis; type: cell-based
T1 sequence (P10275 whole entry): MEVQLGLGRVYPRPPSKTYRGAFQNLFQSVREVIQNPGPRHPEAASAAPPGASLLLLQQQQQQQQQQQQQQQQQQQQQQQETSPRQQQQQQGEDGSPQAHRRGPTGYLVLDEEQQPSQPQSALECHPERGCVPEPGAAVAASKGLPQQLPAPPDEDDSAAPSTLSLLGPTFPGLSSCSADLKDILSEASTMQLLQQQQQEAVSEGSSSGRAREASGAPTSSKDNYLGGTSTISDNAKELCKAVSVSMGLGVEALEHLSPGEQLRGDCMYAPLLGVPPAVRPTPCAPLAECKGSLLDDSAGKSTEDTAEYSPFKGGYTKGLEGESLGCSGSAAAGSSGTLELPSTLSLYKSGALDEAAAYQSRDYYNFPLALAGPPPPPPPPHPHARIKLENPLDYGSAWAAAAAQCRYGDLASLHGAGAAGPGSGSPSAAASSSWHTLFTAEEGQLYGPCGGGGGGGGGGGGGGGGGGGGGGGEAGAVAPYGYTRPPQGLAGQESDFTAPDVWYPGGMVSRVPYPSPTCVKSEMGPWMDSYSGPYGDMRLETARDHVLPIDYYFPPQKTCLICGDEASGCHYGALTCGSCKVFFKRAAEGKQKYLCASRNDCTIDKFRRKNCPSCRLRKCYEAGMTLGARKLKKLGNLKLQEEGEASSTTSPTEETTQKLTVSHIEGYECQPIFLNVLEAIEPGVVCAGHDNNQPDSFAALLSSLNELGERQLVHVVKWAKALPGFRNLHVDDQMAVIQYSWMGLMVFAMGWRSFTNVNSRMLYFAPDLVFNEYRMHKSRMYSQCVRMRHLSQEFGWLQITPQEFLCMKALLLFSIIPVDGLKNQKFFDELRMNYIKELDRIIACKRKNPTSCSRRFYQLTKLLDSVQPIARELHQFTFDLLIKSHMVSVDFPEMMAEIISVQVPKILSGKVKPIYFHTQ

[8] = molecular target: Voltage-gated inwardly rectifying potassium channel KCNH2 (Homo sapiens, UniProt Q12809); assay: Inhibition of human ERG by IonWorks assay
[9] = Oral bioavailability in beagle dog at 10 umol/kg; type: ADME, organism-based, Canis lupus familiaris; details: in vivo
[10] = Clearance in beagle dog at 2 umol/kg, iv and 10 umol/kg, po; type: ADME, organism-based, Canis lupus familiaris; details: in vivo
[11] = Clearance in Han Wistar rat at 3 umol/kg, iv and 10 umol/kg, po; type: ADME, organism-based; details: in vivo
[12] = Volume of distribution at steady state in beagle dog at 2 umol/kg, iv and 10 umol/kg, po; type: ADME, organism-based, Canis lupus familiaris; details: in vivo, read-out: Vdss
[13] = Volume of distribution at steady state in Han Wistar rat at 3 umol/kg, iv and 10 umol/kg, po; type: ADME, organism-based; details: in vivo, read-out: Vdss
[14] = system: Rattus norvegicus; assay: Antiandrogenic activity in immature castrated Hershberger rat model assessed as inhibition of testosterone propionate-induced seminal vesicle growth at 50 to 100 mg/kg, po bid for 7 days; type: functional, organism-based
[15] = Oral bioavailability in Han Wistar rat at 10 umol/kg; type: ADME, organism-based; details: in vivo
[16] = Volume of distribution at steady state in Han Wistar rat at 20 umol/kg, iv and 50 umol/kg, po; type: ADME, organism-based; details: in vivo, read-out: Vdss
[17] = Oral bioavailability in Han Wistar rat at 50 umol/kg; type: ADME, organism-based; details: in vivo
[18] = Clearance in Han Wistar rat at 20 umol/kg, iv and 50 umol/kg, po; type: ADME, organism-based; details: in vivo
[19] = molecular target: T2, Androgen receptor (Rattus norvegicus, UniProt P15207); assay: Binding affinity to rat androgen receptor ligand binding domain by fluorescence polarization assay
T2 sequence (P15207 whole entry): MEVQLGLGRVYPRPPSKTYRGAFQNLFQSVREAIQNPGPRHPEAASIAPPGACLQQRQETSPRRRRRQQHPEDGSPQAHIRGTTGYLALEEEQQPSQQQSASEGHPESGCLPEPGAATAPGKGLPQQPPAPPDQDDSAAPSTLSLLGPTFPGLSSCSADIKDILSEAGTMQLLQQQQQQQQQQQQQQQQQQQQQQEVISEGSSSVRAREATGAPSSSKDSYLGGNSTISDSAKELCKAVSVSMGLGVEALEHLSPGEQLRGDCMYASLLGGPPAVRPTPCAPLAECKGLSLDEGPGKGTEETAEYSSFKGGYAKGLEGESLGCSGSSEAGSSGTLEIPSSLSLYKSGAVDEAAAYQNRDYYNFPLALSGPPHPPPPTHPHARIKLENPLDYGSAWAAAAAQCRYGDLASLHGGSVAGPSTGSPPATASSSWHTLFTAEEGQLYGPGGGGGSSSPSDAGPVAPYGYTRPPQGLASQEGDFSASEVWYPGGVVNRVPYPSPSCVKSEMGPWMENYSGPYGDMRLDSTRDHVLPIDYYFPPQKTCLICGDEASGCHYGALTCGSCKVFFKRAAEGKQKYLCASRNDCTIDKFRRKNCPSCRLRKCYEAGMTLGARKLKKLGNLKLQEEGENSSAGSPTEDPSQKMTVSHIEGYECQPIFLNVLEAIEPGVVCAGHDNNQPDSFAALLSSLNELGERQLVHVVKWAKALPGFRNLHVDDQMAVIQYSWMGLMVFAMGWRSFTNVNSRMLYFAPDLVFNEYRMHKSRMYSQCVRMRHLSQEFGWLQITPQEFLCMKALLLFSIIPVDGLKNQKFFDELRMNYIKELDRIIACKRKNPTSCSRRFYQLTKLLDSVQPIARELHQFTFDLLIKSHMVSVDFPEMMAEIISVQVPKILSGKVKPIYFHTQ

[20] = Volume of distribution at steady state in Han Wistar rat at 4 umol/kg, iv and 5 umol/kg, po; type: ADME, organism-based; details: in vivo, read-out: Vdss
[21] = Oral bioavailability in Han Wistar rat at 5 umol/kg; type: ADME, organism-based; details: in vivo
[22] = molecular target: T1, Androgen receptor; assay: Displacement of [3H]R1881 from full length androgen receptor in human LNCAP cells; type: cell-based
[23] = Clearance in Han Wistar rat at 4 umol/kg, iv and 5 umol/kg, po; type: ADME, organism-based; details: in vivo

Chain of Voltage-gated inwardly rectifying potassium channel KCNH2 (Q12809 whole entry): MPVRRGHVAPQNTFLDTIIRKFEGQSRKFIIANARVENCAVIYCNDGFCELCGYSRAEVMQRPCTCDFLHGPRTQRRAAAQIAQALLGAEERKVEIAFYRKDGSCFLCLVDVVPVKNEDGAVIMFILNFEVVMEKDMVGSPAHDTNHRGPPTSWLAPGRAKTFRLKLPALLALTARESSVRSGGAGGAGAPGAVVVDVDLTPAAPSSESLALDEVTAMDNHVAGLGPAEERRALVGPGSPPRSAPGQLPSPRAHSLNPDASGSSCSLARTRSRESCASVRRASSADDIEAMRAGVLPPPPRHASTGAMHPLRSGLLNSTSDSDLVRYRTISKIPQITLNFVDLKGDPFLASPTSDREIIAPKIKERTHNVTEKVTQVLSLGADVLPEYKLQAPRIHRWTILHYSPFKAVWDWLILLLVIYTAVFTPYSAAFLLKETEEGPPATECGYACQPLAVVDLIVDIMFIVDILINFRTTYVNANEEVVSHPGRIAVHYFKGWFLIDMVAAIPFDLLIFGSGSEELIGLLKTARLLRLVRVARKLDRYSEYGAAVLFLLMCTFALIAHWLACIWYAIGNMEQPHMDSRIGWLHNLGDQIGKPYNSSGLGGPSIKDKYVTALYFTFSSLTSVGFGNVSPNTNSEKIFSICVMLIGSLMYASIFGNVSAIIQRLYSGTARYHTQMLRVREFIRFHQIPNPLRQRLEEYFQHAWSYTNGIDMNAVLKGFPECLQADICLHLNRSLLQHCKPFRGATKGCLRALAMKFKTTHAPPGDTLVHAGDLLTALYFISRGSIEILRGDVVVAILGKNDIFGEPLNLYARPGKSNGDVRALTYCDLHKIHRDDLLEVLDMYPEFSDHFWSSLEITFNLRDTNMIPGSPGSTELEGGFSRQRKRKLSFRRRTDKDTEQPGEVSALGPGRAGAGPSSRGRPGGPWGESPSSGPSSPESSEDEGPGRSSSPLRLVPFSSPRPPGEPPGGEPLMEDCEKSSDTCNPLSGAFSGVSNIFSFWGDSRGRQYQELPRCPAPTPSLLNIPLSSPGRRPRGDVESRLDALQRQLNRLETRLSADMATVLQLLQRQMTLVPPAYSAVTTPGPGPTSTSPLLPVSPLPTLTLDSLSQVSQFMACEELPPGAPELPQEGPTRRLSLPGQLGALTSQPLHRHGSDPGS

Structure (SMILES)	fraction unbound [2]	hepatocyte CLint [3] [µL/min/1e6 cells]	fraction unbound [4]	solubility thermodynamic at 24 h [5] [µM]	logD [6]	IC50 [7] [nM]	IC50 [8] [µM]	also measured
CC(O)(CS(=O)(=O)c1ccc(F)cc1)C(=O)Nc1ccc(C#N)c(C(F)(F)F)c1 (centres undefined)								growth inhibition (GI) [1]: Active
Fc1ccc(CN2CCN(c3ccc4nnc(C(F)(F)F)n4n3)CC2)cc1	0.034	52	0.02					
N#Cc1ccc(CN2CCN(c3ccc4nnc(C(F)(F)F)n4n3)CC2)cc1	0.092	< 3	0.044	8.4 (≈ 3.25 µg/mL)	2.9	1510		
CC(=O)N1CCN(CCOc2ccc(C3(O)CCN(c4ccc5nnc(C(F)(F)F)n5n4)CC3)cc2)CC1	0.064		0.17	190 (≈ 101 µg/mL)	2.2		> 100	
Cn1nccc1CCOc1ccc(C2CCN(c3ccc4nnc(C(F)(F)F)n4n3)CC2)cc1	0.0021	12	0.0016	< 0.73	> 4.3	234	17.8	bioavailability [9]: 18%; clearance [10]: 9.2 mL/min/kg; clearance [11]: 22 mL/min/kg; Vd [12]: 2.7 L/kg; Vd [13]: 2.3 L/kg; growth inhibition (GI) [14]: Active; bioavailability [15]: 43%
CC(=O)N1CCN(CCOc2ccc(C3CCN(c4ccc5nnc(C(F)(F)F)n5n4)CC3)cc2)CC1	0.012	12	0.027			324	11.2	
Fc1cccc(CN2CCN(c3ccc4nnc(C(F)(F)F)n4n3)CC2)c1F	0.018	22	0.017			2090	> 100	
Fc1ccc(CN2CCN(C3=Nn4c(nnc4C(F)(F)F)CC3)CC2)cc1	0.13	3.7	0.12	520 (≈ 199 µg/mL)	2.8	5890	29.5	
OC1(c2ccc(F)cc2)CCN(c2ccc3nnc(C(F)(F)F)n3n2)CC1	0.036	< 3	0.04					
OC1(c2cccnc2)CCN(c2ccc3nnc(C(F)(F)F)n3n2)CC1	0.34	< 3	0.26	100 (≈ 36.4 µg/mL)	2.1	10700	95.5	Vd [16]: 5.7 L/kg; bioavailability [9]: > 75%; clearance [10]: 18 mL/min/kg; bioavailability [17]: > 75%; Vd [12]: 1.3 L/kg; clearance [18]: 38 mL/min/kg; growth inhibition (GI) [14]: Active
CC(=O)N1CCN(CCOc2ccc(C3CCN(C4=Nn5c(nnc5C(F)(F)F)CC4)CC3)cc2)CC1 [AZD3514]	0.094	< 3	0.12	577 (≈ 300 µg/mL)	2.5	1780	> 100	Ki [19]: 5 µM; Vd [20]: 2.1 L/kg; bioavailability [9]: > 75%; clearance [10]: 12 mL/min/kg; bioavailability [21]: 74%; Vd [12]: 3.2 L/kg; Ki [22]: 2200 nM; clearance [23]: 6.6 mL/min/kg; growth inhibition (GI) [14]: Active
